This passage reports IC50 results from patent publication US9199984B2, “Inhibition of enzymes” (CHIESI FARMACEUTICI S.p.A., priority 2012, dated 2015).

pIC50: −log10 of the molar value. Structures can show the parent of a compound that is named as a salt.

The test addresses T1, human neutrophil elastase (HNE) (Homo sapiens, UniProt P08246).
T1 construct: purchased Sigma E8140
T1 sequence (P08246 30-247 limits assumed): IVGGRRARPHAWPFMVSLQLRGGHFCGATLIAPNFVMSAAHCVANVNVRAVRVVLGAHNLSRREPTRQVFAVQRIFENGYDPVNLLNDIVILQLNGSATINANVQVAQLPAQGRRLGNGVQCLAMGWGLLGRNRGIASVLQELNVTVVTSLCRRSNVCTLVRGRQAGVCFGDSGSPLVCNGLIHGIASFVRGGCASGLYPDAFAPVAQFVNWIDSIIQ
The test is described as follows: HNE enzyme activity assay. The conditions noted are these: human leukocyte elastase, substrate MeOSuc-Ala-Ala-Pro-Val-AMC 100 μM, 25° C. for 30 minutes, fluorescence; read-out: HNE inhibition. It counts as biochemical. As for the experimental part: Compounds of the present invention were tested for potency in a human neutrophil elastase (HNE) enzyme activity assay.
Assays were performed in 96-well plates in a total assay volume of 100 μl. The final concentration of elastase enzyme (human leukocyte elastase, Sigma E8140) was 0.0036 units/well […]. The peptide substrate (MeOSuc-Ala-Ala-Pro-Val-AMC, Calbiochem #324740) was used at a final concentration of 100 μM. The final concentration of DMSO was 1% in the assay buffer (0.05M Tris.HCl, 0.1M NaCl, 0.1M CaCl2, 0.0005% brij-35, pH 7.5). The enzymatic reaction was started by addition of the enzyme and incubated at 25° C. for 30 minutes. After incubation, the reaction was stopped by addition of soybean trypsin inhibitor (Sigma T9003) at a final concentration of 50 μg/well. Fluorescence was measured using a Molecular Devices fluorescence plate reader using 380 nm excitation and 460 nm emission wavelengths.
A dose response to each compound was performed and the effect of compound in each experiment was expressed as a percentage inhibition of the control enzyme fluorescence. Dose response curves were plotted and compound potency (IC50) was determined. Compounds were tested in at least two separate experiments.

With `Cc1c(-c2ccnn2-c2ccc(C#N)cc2)cn2nc(NCC(C)O)nc2c1-c1cccc(C(F)(F)F)c1` (stereo not drawn) [Example 49, 4-{5-[2-(2-Hydroxy-propylamino)-7-methyl-8-(3-trifluoromethyl-phenyl)-[1,2,4]triazolo[1,5-a]pyridin-6-yl]-pyrazol-1-yl}-benzonitrile], the pIC50 is > 7.70.

Regarding `Cc1c(-c2ccnn2-c2ccc(C#N)cc2)cn2nc(NC(=O)NC3CCNCC3)nc2c1-c1cccc(C(F)(F)F)c1` [Example 50, 1-[6-[2-(4-Cyano-phenyl)-2H-pyrazol-3-yl]-7-methyl-8-(3-trifluoromethyl-phenyl)-[1,2,4]triazolo[1,5-a]pyridin-2-yl]-3-piperidin-4-yl-urea], the pIC50 is > 7.70.

With `Cc1c(-c2ccnn2-c2ccc(C#N)cc2)cn2nc(NC(=O)NC3CCN(C)CC3)nc2c1-c1cccc(C(F)(F)F)c1` [Example 51, (1-Methyl-4-piperidyl)[6-[2-(4-cyano-phenyl)-2H-pyrazol-3-yl]-7-methyl-8-(3-trifluoromethyl-phenyl)-[1,2,4]triazolo[1,5-a]pyridin-2-yl]-urea], the pIC50 was > 7.70.

On to `CCNC(=O)Nc1nc2c(-c3cccc(C(F)(F)F)c3)c(C)c(-c3ccnn3-c3ccc(C#N)cc3)cn2n1` [Example 52, 1-[6-[2-(4-Cyano-phenyl)-2H-pyrazol-3-yl]-7-methyl-8-(3-trifluoromethyl-phenyl)-[1,2,4]triazolo[1,5-a]pyridin-2-yl]-3-ethyl-urea], for which the pIC50 is > 7.70.

In the case of `Cc1c(-c2ccnn2-c2ccc(C#N)cc2)cn2nc(NCCCO)nc2c1-c1cccc(C(F)(F)F)c1` [Example 53, 4-{5-[2-(3-Hydroxy-propylamino)-7-methyl-8-(3-trifluoromethyl-phenyl)-[1,2,4]triazolo[1,5-a]pyridin-6-yl]-pyrazol-1-yl}-benzonitrile], the pIC50 was > 7.70.

For the compound `Cc1c(-c2ccnn2-c2ccc(C#N)cc2)cn2nc(NCCCCO)nc2c1-c1cccc(C(F)(F)F)c1` [Example 54, 4-{5-[2-(4-Hydroxy-butylamino)-7-methyl-8-(3-trifluoromethyl-phenyl)-[1,2,4]triazolo[1,5-a]pyridin-6-yl]-pyrazol-1-yl}-benzonitrile], the pIC50 is > 7.70.

`Cc1c(-c2ccnn2-c2ccc(C#N)cc2)cn2nc(NC(=O)CCC(=O)O)nc2c1-c1cccc(C(F)(F)F)c1` [Example 55, N-[6-[2-(4-Cyano-phenyl)-2H-pyrazol-3-yl]-7-methyl-8-(3-trifluoromethyl-phenyl)-[1,2,4]triazolo[1,5-a]pyridin-2-yl]-succinamic acid]: the pIC50 was > 7.70.

Take `CNCCCC(=O)Nc1nc2c(-c3cccc(C(F)(F)F)c3)c(C)c(-c3ccnn3-c3ccc(C#N)cc3)cn2n1` [Example 56, N-[6-[2-(4-Cyano-phenyl)-2H-pyrazol-3-yl]-7-methyl-8-(3-trifluoromethyl-phenyl)-[1,2,4]triazolo[1,5-a]pyridin-2-yl]-4-methylamino-butyramide]: the pIC50 is > 7.70.

Take `CC(=O)N1CCC(NC(=O)Nc2nc3c(-c4cccc(C(F)(F)F)c4)c(C)c(-c4ccnn4-c4ccc(C#N)cc4)cn3n2)CC1` [Example 57, 1-(1-Acetyl-piperidin-4-yl)-3-[6-[2-(4-cyano-phenyl)-2H-pyrazol-3-yl]-7-methyl-8-(3-trifluoromethyl-phenyl)-[1,2,4]triazolo[1,5-a]pyridin-2-yl]-urea]: the pIC50 is > 7.70.

As for `Cc1c(-c2ccnn2-c2ccc(C#N)cc2)cn2nc(NC(=O)NC3CCN(S(C)(=O)=O)CC3)nc2c1-c1cccc(C(F)(F)F)c1` [Example 58, 1-[6-[2-(4-Cyano-phenyl)-2H-pyrazol-3-yl]-7-methyl-8-(3-trifluoromethyl-phenyl)-[1,2,4]triazolo[1,5-a]pyridin-2-yl]-3-(1-methanesulfonyl-piperidin-4-yl)-urea], the pIC50 was > 7.70.

Take `Cc1c(-c2ccnn2-c2ccc(C#N)cc2)cn2nc(NCCCC(=O)N(C)CCN(C)C)nc2c1-c1cccc(C(F)(F)F)c1` [Example 60, 4-[6-[2-(4-Cyano-phenyl)-2H-pyrazol-3-yl]-7-methyl-8-(3-trifluoromethyl-phenyl)-[1,2,4]triazolo[1,5-a]pyridin-2-ylamino]-N-(2-dimethylamino-ethyl)-N-methyl-butyramide formate salt]: the pIC50 was > 7.70.

With `Cc1c(-c2nc(N)nn2-c2ccc(C#N)cc2)cn2nc(N)nc2c1-c1cccc(C(F)(F)F)c1` [Example 61, 4-{3-Amino-5-[2-amino-7-methyl-8-(3-trifluoromethyl-phenyl)-[1,2,4]triazolo[1,5-a]pyridin-6-yl]-[1,2,4]triazol-1-yl}-benzonitrile], the pIC50 was > 7.70.
